Data on 25 compounds can be found in PubChem BioAssay AID652026 (The Scripps Research Institute Molecular Screening Center, 2013).

Calls of active or inactive are those of the source.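 Rule for the calls: active = STAT5 reporter signal fold change below 0.5 at a 10 µM dose; inactive = the rest.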

This assay deals with T47D STAT5-luciferase reporter, prolactin-induced, luminescence. The assay is described as follows: STAT5 signaling inhibitors, reporter cells, late-stage follow-up, cell-based, luminescence, T47D, assay provider (AID 652026). The note with it: at 10 µM; active compounds read low.
For the compound `Cc1cc[n+](CC(=O)/C=C2\N(C)c3ccccc3C2(C)C)c(C)c1`, the fold change is 0.67 (inactive). For `O=C(C[n+]1ccc2ccccc2c1)c1ccccc1`, the fold change was 0.909 (inactive). For `CC(C)(C)C(=O)C[n+]1ccc2ccccc2c1`, the fold change was 0.696 (inactive). As to `O=C(C[n+]1ccc2ccccc2c1)c1cc2ccccc2oc1=O`, the fold change was 0.305.

Take `O=C(C[n+]1ccc2ccccc2c1)Nc1ccccc1`: the fold change is 0.895 (inactive). `CN1/C(=C\C(=O)CN2C(=O)NC(C)(c3ccc(Cl)cc3)C2=O)C(C)(C)c2ccccc21` (stereo not given): the fold change was 0.769 (inactive).

For the compound `CN1/C(=C\C(=O)C[n+]2cccc(-c3ccccc3)c2)C(C)(C)c2ccccc21`, the fold change was 0.367. Regarding `CN1/C(=C\C(=O)CN2C(=O)c3ccccc3S2(=O)=O)C(C)(C)c2ccccc21`, the fold change was 0.733 (inactive). With `CN1/C(=C\C(=O)CN2C(=O)C3CC=CCC3C2=O)C(C)(C)c2ccccc21` (stereo not given) the figure was 0.473. In the case of `CN1/C(=C\C(=O)CN2CCc3ccccc3C2)C(C)(C)c2ccccc21`, the fold change was 0.962 (inactive). Regarding `CN1/C(=C\C(=O)C[n+]2ccccc2)C(C)(C)c2ccccc21`, the fold change was 0.777 (inactive).

As for `Cc1cc[n+](CC(=O)/C=C2\N(C)c3ccccc3C2(C)C)cc1`, the fold change is 0.738 (inactive). With `CN1/C(=C\C(=O)CN2CCCC2)C(C)(C)c2ccccc21`, the fold change was 0.704 (inactive).

Consider `CN1/C(=C\C(=O)Cn2cnc3ccc(Cl)cc3c2=O)C(C)(C)c2ccccc21`, for which the fold change is 0.845 (inactive). With `O=C(C[n+]1ccc2ccccc2c1)c1ccc2ccccc2c1` the figure was 0.818 (inactive); with `CN1/C(=C\C(=O)CN2C(=O)c3ccccc3C2=O)C(C)(C)c2ccccc21`, 0.859 (inactive). Take `COc1cccc2cc(C(=O)C[n+]3ccc4ccccc4c3)c(=O)oc12`: the fold change was 0.965 (inactive). With `COc1ccc2oc(=O)c(C(=O)C[n+]3ccc4ccccc4c3)cc2c1` the figure was 0.843 (inactive); with `CN1/C(=C\C(=O)Cn2c(=O)c(C#N)cn(C)c2=O)C(C)(C)c2ccccc21`, 0.739 (inactive).

Take `CN1/C(=C\C(=O)Cn2cc(C(F)(F)F)ccc2=O)C(C)(C)c2ccccc21`: the fold change is 0.971 (inactive).

As to `COC(=O)C1CCCCN1CC(=O)/C=C1/N(C)c2ccccc2C1(C)C` (stereo not given), the fold change was 0.906 (inactive). With `CN1/C(=C\C(=O)Cn2nnc(-c3ccccc3)n2)C(C)(C)c2ccccc21`, the fold change was 0.724 (inactive). Turning to `CCOC(=O)C1CCCN(CC(=O)/C=C2/N(C)c3ccccc3C2(C)C)C1` (stereo not given), the fold change is 0.856 (inactive). With `CN1/C(=C\C(=O)CN2C(=O)c3ccccc3CS2(=O)=O)C(C)(C)c2ccccc21` the figure was 0.766 (inactive). Turning to `CN1/C(=C\C(=O)CN2C(=O)c3ccc([N+](=O)[O-])cc3C2=O)C(C)(C)c2ccccc21`, the fold change is 0.76 (inactive).
